According to PMC7497679, “Structure-based design, synthesis, and evaluation of the biological activity of novel phosphoroorganic small molecule IAP antagonists” (Investigational New Drugs, 2020):

Experiments:
MCF-7 = experiment: Antiproliferative activity, SRB method; assay type: cell-based, human; conditions: Homo sapiens, MCF7, 10 µM, 72 h, read-out: mean proliferation inhibition at highest concentration used, MCF-7
Excerpt: (§1) MDA-MB-231 (human breast cancer), MCF10A (human, nontumorigenic mammary gland epithelial cells), A549 (human nonsmall-cell lung cancer), UMUC-3 (human bladder cancer) and LoVo (human colon cancer) cell lines were obtained from the American Type Culture Collection (ATCC; Rockville, Maryland, USA). The MCF-7 cell line (human breast cancer) was obtained from the European Collection of Cell Cultures (ECACC; Salisbury, UK). All cell lines were maintained at the Hirszfeld Institute of Immunology and Experimental Therapy (HIIET), Wrocław, Poland. MDA-MB-231 cells were cultured in RPMI1640 medium (Thermo Fisher Scientific, Warszawa, Poland) supplemented with 2 mM L-glutamine, 1 mM sodium pyruvate, and 10% fetal bovine serum (all from Sigma-Aldrich, Poznań, Poland). The MCF10A cell line was cultured in Ham’s F12 medium with glutamine (Corning) supplemented with 5% (v/v) fetal bovine serum (FBS), 5% (v/v) horse serum, 10 µg/mL insulin, 0.05 µg/mL cholera toxin, 0.5 µg/mL hydrocortisone, and 20 ng/mL hEGF (all from Sigma-Aldrich). A549 and LoVo cells were cultured in a 1:1 (v/v) mixture of RPMI1640 and Opti-MEM (both from HIIET) supplemented with 5% (v/v) FBS and 2 mM L-glutamine. The UMUC-3 cell line was cultured in high glucose DMEM (Thermo Fisher Scientific) supplemented with 10% FBS and 2 mM Lglutamine. The MCF-7 line was cultured in Eagle’s minimal essential medium (EMEM; Thermo Fisher Scientific) supplemented with 10% (v/v) FBS, 2 mM L-glutamine, 1% (v/v) nonessential amino acids, and 8 µg/mL insulin (all from Sigma-Aldrich). All culture media contained 100 µg/mL streptomycin (Sigma-Aldrich) and 100 U/mL penicillin (Polfa Tarchomin SA, Warszawa, Poland). The cells were grown at 37 °C in a humid atmosphere saturated with 5% CO2.
(§2) Antiproliferative activity was assessed in six cell lines utilizing the sulforhodamine B (SRB) method. Briefly, cells were seeded in 96-well plates (Sarstedt, Warszawa, Poland) at a density of 5 × 10^3 cells/well, and after overnight incubation, the cells were exposed to compounds at various concentrations. After 72 h, the plates were fixed with 50% (v/v) TCA (all from Sigma-Aldrich), washed with tap water, and the precipitated proteins were labeled with 0.1% (w/v) SRB solution in 1% (v/v) AcOH. Next, the plates were washed with 1% (v/v) AcOH, and the remaining SRB dye was solubilized with 10 mM unbuffered TRIS solution. The absorbance was measured using a Biotek Hybrid H4 reader (BioTek Instruments, VT, USA) at 540 nm. Crude results were analyzed using a previously described method, and the results are expressed as the IC50 (compound concentration that reduced cell growth by 50%) compared to the vehicletreated control (0.1% (v/v) DMSO). The samples were analyzed in triplicate, and each experiment was repeated at least three times.

LoVo = experiment: Antiproliferative activity, SRB method; assay type: cell-based, human; conditions: Homo sapiens, LoVo, 10 µM, 72 h, read-out: mean proliferation inhibition at highest concentration used, LoVo
Excerpt: as §1, §2

MCF-10A = experiment: Antiproliferative activity, SRB method; assay type: cell-based, human; conditions: Homo sapiens, MCF-10A, 10 µM, 72 h, read-out: mean proliferation inhibition at highest concentration used, MCF-10A
Excerpt: as §1, §2

MDA-MB-231 = experiment: Antiproliferative activity, SRB method; assay type: cell-based, human; conditions: Homo sapiens, MDA-MB-231, 72 h, read-out: IC50 ± SD (n = 3) MDA-MB-231
Excerpt: as §1, §2

A549 = experiment: Antiproliferative activity, SRB method; assay type: cell-based, human; conditions: Homo sapiens, A549, 10 µM, 72 h, read-out: mean proliferation inhibition at highest concentration used, A549
Excerpt: as §1, §2

UMUC-3 = experiment: Antiproliferative activity, SRB method; assay type: cell-based, human; conditions: Homo sapiens, UMUC3, 10 µM, 72 h, read-out: mean proliferation inhibition at highest concentration used, UMUC-3
Excerpt: as §1, §2

XIAP BIR3 domain = target: T1, XIAP BIR3 domain (Homo sapiens, UniProt P98170); experiment: Fluorescence polarization inhibition (competition) assay; assay type: binding; conditions: XIAP BIR3 50 nM, fluorescent probe 4 2 nM; read-out: EC50
T1 construct: fluorescent probe 4 and the XIAP BIR3 domain (Sino Biological, Beijing, China) were used for all measurements; purchased Sino Biological, Beijing, China
Procedure: The fluorescence polarization assay was performed at r.t. in Corning 384-well black, polystyrene flat bottom plates (Corning, NY, USA) on a Synergy H4 Hybrid Reader (BioTek, Bad Friedrichshall, Germany). For fluorescence polarization measurements, (milipolarization units, mP) 484/20 nm excitation and 528/20 nm emission filters were selected. Phosphate buffer (pH 7.5) supplemented with γ-globulin (100 µg/mL) and NaN3 (0.02% w/v), fluorescent probe 4 and the XIAP BIR3 domain (Sino Biological, Beijing, China) were used for all measurements. All experiments were performed in duplicate. The obtained fluorescence polarization assay data were analyzed with Prism 5.0 Software (GraphPad Software, San Diego, ca.).
After a 15 min incubation at r.t., fluorescent probe 4 (2 nM) was added. The values were measured 30 min after the moment the probe was added. The assay was performed in phosphate buffer with a final DMSO concentration of 1.4% (v/v). […] In order to evaluate the quality and precision of the performed screening assay, we determined the Z´ factor as described by Zhang et al.. The obtained fluorescence polarization values were used to determine the percent inhibition, which was plotted as a function of the protein concentration. The EC50 and Ki values were calculated with GraphPad software (log(agonist) vs. response (variable slope) model) in combination with the web tool developed by Nikolovska-Coleska et al..
Fluorescence polarization inhibition assay and data analysis for 41m and 42m compounds was performed as described in the Material and Methods section of the manuscript. Briefly, 50 nM solution of the BIR3 XIAP protein in polarization buffer was added into phosphoroorganic compound solution (from 50 μM to 0.0537 nM). After 15 min incubation at r.t. the fluorescent probe 4 (2 nM) was added.
The values were read after 30 minutes from the moment the probe was added. The obtained fluorescence polarization values were used to determine the percentage of inhibition which was plotted as a function of the protein concentration (Supplementary Figure S4).
(1 picture or pasted object on this page, not shown here)

T1 sequence (P98170 252-356 limits assumed): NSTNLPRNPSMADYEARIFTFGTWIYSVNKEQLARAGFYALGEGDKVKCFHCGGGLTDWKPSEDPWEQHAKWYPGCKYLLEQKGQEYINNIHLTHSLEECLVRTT

With `CN[C@@H](C)C(=O)N[C@H](C(=O)N1CCC[C@H]1C(=O)Nc1snnc1-c1ccccc1)C1CCCCC1` [GDC-0152, reference compound] the inhibition at 10 µM (MCF-7) was 18%, the inhibition at 10 µM (LoVo) was 9% and the inhibition at 10 µM (MCF-10A) was 1%. It also gave an IC50 (MDA-MB-231) of 880 ± 210 nM, an inhibition at 10 µM (A549) of 13% and an inhibition at 10 µM (UMUC-3) of 13%. For the same compound, the EC50 (XIAP BIR3 domain) was 10 nM.
